Laboratory results taken from patent US11728018B2, “Subject-specific system and method for prevention of body adaptation for chronic treatment of disease” (OBERON SCIENCES ILAN LTD., priority 2017, dated 2023).
Values joined by “and” are separate entries in the source; they are usually repeats but may differ in a detail not shown here. Equal entries are not always repeated. Where two headings read alike, the source gives them in different places.

Columns and labels:
C57Bl/6 mice given Con A [1] = format: in vivo
[2] = tested on: PBMC from naïve GD patients; assay: PBMC from Gaucher patients incubated with ConA, IFNg ELISA; settings: for IFNg ELISA, second value (Conc) / IFNg Conc: Colchicine 0.0625 pg/ml or dexamethasone 250 ug/well
[3] = in vivo; cited from earlier work
C57Bl/6 mice given Con A [4] = assay: Colchicine by gavage once six hours before ConA injection, serum ALT; format: in vivo; settings: for ALT Average: N = 3
Description: Lack of an effect of low dose colchicine (0.5 mg, 3 times a day) as anti-inflammatory agent, while showing beneficial effect of low dose colchicine in diabetes and fatty liver disease. • Mice: C57Bl/6 mice, 11-12 weeks old • Duration: Mice will be administered once Colchicine six hours before ConA • Sacrifice: 14 hours after ConA injection.
Experiment Protocol: • Day 1: Administer all compounds by gavage 300 ul: saline or Colchicine • After 6 hours give Con A by injection IV 500 μg/mouse=20 mg/kg=[…] • Day 2: On the next day: sacrifice all mice • Take blood for serum ALT The results of this experiments are given in the table below and in FIG. 7.

mice on a High fat diet = assay: Low dose colchicine in high fat diet model of type 2 diabetes and fatty liver; format: in vivo; settings: colchicine for two weeks, dose that had no anti-inflammatory effect
Description: • Give colchicine at the end of the experiment for two weeks to 4 mice who were on a High fat diet and developed diabetes and fatty liver disease. • Mice are treated with a dose that had no anti-inflammatory effect. • Test for glucose, ALT and cholesterol levels at the end of the two weeks.

[5] = tested on: C57 Bl mice receiving CONA; assay: Daily low dose CONA in mice, regular vs irregular dexamethasone administration, serum ALT; format: in vivo; settings: dexamethasone 50 mg/kg per day
Description: Mice: 24 C57 Bl mice, 12 weeks old, n=4/group
All animals received daily low dose CONA 300 μg/mouse daily for 10 days
Dexamethasone daily 50 mg/kg per day
ALT serum levels were monitored as follows

[6] = Patient 1, lymphocytes only 80.9
[7] = Patient 2, lymphocytes only 474.7

Nc1c(Br)cc(Br)cc1CN[C@H]1CC[C@H](O)CC1 [Ambroxol]
ALT (IU) (C57Bl/6 mice given Con A [1]; Ambroxol 1.4 mg PO, alone or with Colchicine 0.01 mg/kg, control 6068): 4243 IU | ALT Average (C57Bl/6 mice given Con A [1]; Ambroxol arm, N = 3, control 6068): 4243 | ALT (C57Bl/6 mice given Con A [1]; single mice, Ambroxol arm, dilution 1/40): 3683 and 4187 and 4859

COc1cc2c(c(OC)c1OC)-c1ccc(OC)c(=O)cc1[C@@H](NC(C)=O)CC2 [Colchicine]
IFNg ELISA, second value (Conc) ([2]; P1, lymphocytes only 80.9): 52.3 | IFNg ELISA, second value (Conc) ([2]; P2, lymphocytes only 474.7): 47.57 | IFNg Conc [2, 6]: 52.3 | IFNg Conc [2, 7]: 47.57 | effect on the inflammatory effect of PBMC from patients with Gaucher disease ([2]; summary in words): profound effect on suppressing the inflammatory effect of PBMC | part of dose excreted unchanged by the kidneys [3]: 10-20% | removal by hemodialysis [3]: not removed by hemodialysis | ALT Average (C57Bl/6 mice given Con A [4]; Low dose, Colchicine 0.005 μg/kg by gavage): 3218 | ALT Average (C57Bl/6 mice given Con A [4]; Regular dose, Colchicine 0.05 μg/kg by gavage): 17134 | ALT (C57Bl/6 mice given Con A [4]; single mice, Regular dose, Colchicine 0.05 μg/kg by gavage, dilution 1/40): 18946 and 19427 and 13029 | Glucose (mg %) (mice on a High fat diet; control 190): 155 mg % | ALT (IU) (mice on a High fat diet; control 278): 103 IU | Cholesterol (mg %) (mice on a High fat diet; control 342): 100 mg % | adjuvant effect on the efficacy of drugs (C57Bl/6 mice given Con A [1]; low dose colchicine, summary in words): can serve as a potent adjuvant to improve the efficacy of drugs

C[C@@H]1C[C@H]2[C@@H]3CCC4=CC(=O)C=C[C@]4(C)[C@@]3(F)[C@@H](O)C[C@]2(C)[C@@]1(O)C(=O)CO [Dexamethasone]
ALT serum level ([5]; Day 2, group B, regular 8AM every day): 644.25 | ALT serum level ([5]; Day 2, group C, irregular time of administration): 747 | ALT serum level ([5]; Day 5, group B, regular 8AM every day): 978.75 | ALT serum level ([5]; Day 5, group C, irregular time of administration): 842.5 | ALT serum level ([5]; Day 10, group B, regular 8AM every day): 1210.25 | ALT serum level ([5]; Day 10, group C, irregular time of administration): 876.75 | IFNg ELISA, second value (Conc) ([2]; P1, lymphocytes only 80.9): 33.29 | IFNg ELISA, second value (Conc) ([2]; P2, lymphocytes only 474.7): 23.29 | IFNg Conc [2, 6]: 33.29 | IFNg Conc [2, 7]: 23.29
